Experimental data taken from patent US5932623A, “Process for the production of fruit polyphenols from unripe rosaceae fruit” (The Nikka Whisky Distilling Co., Ltd.,, priority 1993, dated 1999).
Where two headings read alike, the source gives them in different places.

How the values were obtained:
[1] = target: T1, GTase (glucosyltransferase) of S. sobrinus (Streptococcus downei, UniProt P27470); test: Test for GTase-inhibiting activity (insoluble glucan formation, turbidity at 550 nm); assay type: biochemical, Streptococcus sobrinus ATCC 33478; conditions: for GTase-inhibiting activity (in words): FIG. 17 and 18
T1 construct: Centrifugation was conducted to remove bacterial cells and obtain a supernatant; made in house; host or cells: S. sobrinus culture supernatant (native secreted enzyme, ammonium sulfate and hydroxyapatite purified)
Experimental: S. sobrinus was cultured in a TTY medium [Agric. Biol. Chem., 54 (11), pp. 2925-2929, 1990] at 37° C. for 18 hours. Centrifugation was conducted to remove bacterial cells and obtain a supernatant. To the supernatant was added ammonium sulfate to 50% saturation. Then, centrifugation was conducted to recover the resulting precipitate. The precipitate was redissolved in a 0.05 M phosphate buffer solution (pH 6.5). The resulting solution was dialyzed with the same buffer solution. The GTase in the dialyzate was purified and removed by hydroxyapatite chromatography. The GTase (capable of forming insoluble glucan) was eluted with an about 0.4 M phosphate buffer solution. The GTase-containing elute was used for the following test.
A purified GTase solution and a sample solution were added to 1 ml of a substrate solution [a 0.1 M phosphate buffer solution (pH 6.5) containing 2% of sucrose, 0.1% of sodium azide and 40 μM of dextran T10]. Water was added for dilution to make the total volume 2 ml. The resulting solution was subjected to a reaction at 37° C. for 18 hours. The amount of insoluble glucan formed by the reaction was measured as a turbidity expressed by an absorbance at 550 nm, and the formation ratio (%) of insoluble glucan was calculated using the following formula: […]
formation ratio (%) of insoluble glucan=(SS-SB).div.(CS-CB)×100 wherein SS: absorbance of sample, SB: absorbance of blank for sample (the blank contained no enzyme), CS: absorbance of control (containing no sample), and CB: absorbance of blank for control (the blank contained no sample and no enzyme).

[2] = Test method for antioxidative activity (peroxide formation from linolic acid, iron rhodanide method); conditions: compound added at 2 μM/g (linolic acid); one week after addition; FIG. 4
Experimental: 5 ml of a base solution (ethanol containing 4% of linolic acid) was mixed with 4 ml of a phosphate buffer solution (pH=7.0) and 1 ml of a sample solution in a tightly stoppered test tube. The test tube was kept in a 50° C. thermostat under light shielding. Also kept under the same conditions were a test tube (control) containing ethanol in place of linolic acid and a test tube (blank) containing the sample solvent in place of the sample.
During the storage period, the reaction mixture was sampled with the lapse of time to quantitatively determine the amount of peroxide formed by the isothiocyanate method (the iron rhodanide method).

[3] = target: T2, ACE (angiotensin I converting enzyme) (Homo sapiens, UniProt P12821); test: Test for ACE-inhibiting activity (commercial ACE, Bz-Gly-His-Leu substrate, fluorescence); assay type: biochemical
T2 construct: purchased
Experimental: The test for ACE-inhibiting activity was conducted by an ordinary method.
The ACE-inhibiting activity of the sample solution was expressed by the following formula: […]
where S: the fluorescent intensity of test solution,
C: the fluorescent intensity of comparative solution wherein water was used in place of the sample,
SB : the fluorescent intensity of blank for S (the blank contained water in place of the enzyme), and
CB : the fluorescent intensity of blank for C (the blank contained water in place of the enzyme).

[4] = system: Salmonella typhimurium TA 98 or TA 100; test: Antimutagenic activity, modified Ames method with S 9-mix; assay type: cell-based; conditions: amount per plate
Experimental: In this Example, antimutagenic activity was measured by modifying the ames method (Mutation Research, vol. 31, p. 347, 1975).
An antimutagenic compound [benzo(a)pyrene or Trp-P-2] solution was mixed with a phosphate buffer solution, a sample solution, S 9-mix and a salmonella (a solution obtained by culturing Salmonella typhimurium TA 98 or TA 100 overnight). The mixture was cultured at 37° C. for 2 days. The number of the resulting colonies was counted. The amount of each polyphenol used was shown based on a scale expressed in geometric progression, between 1 and 300 μg/plate. Antimutagenic activity was calculated using the following formula: […]
antimutagenic activity (%)={(C-B)-(S-B)}).div.(C-B)×100 wherein S: number of colonies of test solution
C: number of colonies of control wherein water is used in place of the sample, and B: number of colonies of blank wherein water is used in place of the sample and the mutagenic com pound.

hyaluronidase = target: T3, hyaluronidase (Bos taurus, UniProt Q2YDK3); test: Test for hyaluronidase-inhibiting activity (commercial hyaluronidase activated with compound 48/80); assay type: biochemical; conditions: FIG. 16
T3 construct: purchased
T3 sequence (Q2YDK3 36-553): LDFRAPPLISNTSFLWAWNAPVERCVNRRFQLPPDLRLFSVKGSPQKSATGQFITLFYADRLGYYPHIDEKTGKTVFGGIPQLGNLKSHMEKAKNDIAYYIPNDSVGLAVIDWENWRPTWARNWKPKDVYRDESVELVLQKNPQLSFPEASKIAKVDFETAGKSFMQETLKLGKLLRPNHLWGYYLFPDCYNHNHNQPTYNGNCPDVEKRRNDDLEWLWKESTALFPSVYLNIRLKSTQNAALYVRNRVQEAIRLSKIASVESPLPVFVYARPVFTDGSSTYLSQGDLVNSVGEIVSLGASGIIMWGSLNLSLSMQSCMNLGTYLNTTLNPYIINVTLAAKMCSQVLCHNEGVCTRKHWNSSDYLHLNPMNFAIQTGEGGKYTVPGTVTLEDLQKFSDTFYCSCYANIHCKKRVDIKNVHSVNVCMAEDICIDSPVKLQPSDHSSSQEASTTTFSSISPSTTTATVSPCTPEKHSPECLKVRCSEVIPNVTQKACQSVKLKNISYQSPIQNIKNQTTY
Experimental: That is, a sample solution was added to a commercial hyaluronidase solution, and preincubation was conducted. […] Then, a hyaluronic acid solution was added as a substrate, and a reaction was allowed to take place.
The N-acetylglucosamine produced by the above reaction was subjected to the Elson-Morgan's procedure to develop a color. […] Hyaluronidase-inhibiting activity (%) was calculated using the following formula:
(%)={(C-CB)-(S-SB)}.div.(C-CB)×100
wherein S: absorbance of test solution,
C: absorbance of control wherein a buffer solution is used in place of the sample,
SB : absorbance of blank for S (the blank contained no enzyme), and
CB : absorbance of blank for C (the blank contained no sample and no enzyme).

T1 sequence (P27470 39-1592): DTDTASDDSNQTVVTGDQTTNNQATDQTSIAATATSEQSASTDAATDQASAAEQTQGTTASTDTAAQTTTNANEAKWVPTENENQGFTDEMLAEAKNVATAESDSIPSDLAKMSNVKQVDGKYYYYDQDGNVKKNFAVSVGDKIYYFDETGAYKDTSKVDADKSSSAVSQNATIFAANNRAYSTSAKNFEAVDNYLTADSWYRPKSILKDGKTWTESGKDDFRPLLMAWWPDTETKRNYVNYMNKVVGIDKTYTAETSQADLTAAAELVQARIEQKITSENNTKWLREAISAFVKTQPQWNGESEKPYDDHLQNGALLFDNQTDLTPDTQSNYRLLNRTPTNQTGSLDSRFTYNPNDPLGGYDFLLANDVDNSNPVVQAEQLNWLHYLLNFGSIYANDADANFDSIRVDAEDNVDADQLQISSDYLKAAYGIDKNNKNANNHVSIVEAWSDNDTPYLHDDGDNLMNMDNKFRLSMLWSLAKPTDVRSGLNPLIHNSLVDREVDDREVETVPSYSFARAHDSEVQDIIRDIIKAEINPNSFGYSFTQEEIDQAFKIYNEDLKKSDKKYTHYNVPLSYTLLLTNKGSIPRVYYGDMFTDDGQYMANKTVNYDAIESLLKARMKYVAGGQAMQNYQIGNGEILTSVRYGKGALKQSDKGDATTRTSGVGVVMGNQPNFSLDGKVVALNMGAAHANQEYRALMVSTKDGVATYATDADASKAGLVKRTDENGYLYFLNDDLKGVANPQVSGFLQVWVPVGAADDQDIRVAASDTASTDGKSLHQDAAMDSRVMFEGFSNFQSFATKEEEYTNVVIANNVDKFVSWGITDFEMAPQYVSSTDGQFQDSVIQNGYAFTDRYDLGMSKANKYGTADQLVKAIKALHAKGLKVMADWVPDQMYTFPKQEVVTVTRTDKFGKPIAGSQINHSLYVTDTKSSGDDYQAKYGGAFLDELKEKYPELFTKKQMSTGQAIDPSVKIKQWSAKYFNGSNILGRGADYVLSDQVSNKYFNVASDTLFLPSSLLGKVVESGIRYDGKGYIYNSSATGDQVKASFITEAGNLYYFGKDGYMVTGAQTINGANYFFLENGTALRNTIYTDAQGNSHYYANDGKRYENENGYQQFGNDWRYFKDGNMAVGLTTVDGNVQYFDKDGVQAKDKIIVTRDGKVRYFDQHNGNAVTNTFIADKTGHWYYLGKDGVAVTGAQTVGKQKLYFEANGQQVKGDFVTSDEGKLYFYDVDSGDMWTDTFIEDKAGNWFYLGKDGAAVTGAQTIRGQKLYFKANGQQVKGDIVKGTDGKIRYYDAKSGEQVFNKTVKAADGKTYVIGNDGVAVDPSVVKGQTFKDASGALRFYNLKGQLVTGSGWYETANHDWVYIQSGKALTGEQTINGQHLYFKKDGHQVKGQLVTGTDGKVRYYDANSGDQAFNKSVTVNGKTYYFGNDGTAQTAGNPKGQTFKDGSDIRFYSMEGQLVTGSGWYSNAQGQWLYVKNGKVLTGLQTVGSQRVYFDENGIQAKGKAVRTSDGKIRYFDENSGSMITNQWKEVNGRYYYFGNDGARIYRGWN
T2 sequence (P12821 30-1306, species assumed): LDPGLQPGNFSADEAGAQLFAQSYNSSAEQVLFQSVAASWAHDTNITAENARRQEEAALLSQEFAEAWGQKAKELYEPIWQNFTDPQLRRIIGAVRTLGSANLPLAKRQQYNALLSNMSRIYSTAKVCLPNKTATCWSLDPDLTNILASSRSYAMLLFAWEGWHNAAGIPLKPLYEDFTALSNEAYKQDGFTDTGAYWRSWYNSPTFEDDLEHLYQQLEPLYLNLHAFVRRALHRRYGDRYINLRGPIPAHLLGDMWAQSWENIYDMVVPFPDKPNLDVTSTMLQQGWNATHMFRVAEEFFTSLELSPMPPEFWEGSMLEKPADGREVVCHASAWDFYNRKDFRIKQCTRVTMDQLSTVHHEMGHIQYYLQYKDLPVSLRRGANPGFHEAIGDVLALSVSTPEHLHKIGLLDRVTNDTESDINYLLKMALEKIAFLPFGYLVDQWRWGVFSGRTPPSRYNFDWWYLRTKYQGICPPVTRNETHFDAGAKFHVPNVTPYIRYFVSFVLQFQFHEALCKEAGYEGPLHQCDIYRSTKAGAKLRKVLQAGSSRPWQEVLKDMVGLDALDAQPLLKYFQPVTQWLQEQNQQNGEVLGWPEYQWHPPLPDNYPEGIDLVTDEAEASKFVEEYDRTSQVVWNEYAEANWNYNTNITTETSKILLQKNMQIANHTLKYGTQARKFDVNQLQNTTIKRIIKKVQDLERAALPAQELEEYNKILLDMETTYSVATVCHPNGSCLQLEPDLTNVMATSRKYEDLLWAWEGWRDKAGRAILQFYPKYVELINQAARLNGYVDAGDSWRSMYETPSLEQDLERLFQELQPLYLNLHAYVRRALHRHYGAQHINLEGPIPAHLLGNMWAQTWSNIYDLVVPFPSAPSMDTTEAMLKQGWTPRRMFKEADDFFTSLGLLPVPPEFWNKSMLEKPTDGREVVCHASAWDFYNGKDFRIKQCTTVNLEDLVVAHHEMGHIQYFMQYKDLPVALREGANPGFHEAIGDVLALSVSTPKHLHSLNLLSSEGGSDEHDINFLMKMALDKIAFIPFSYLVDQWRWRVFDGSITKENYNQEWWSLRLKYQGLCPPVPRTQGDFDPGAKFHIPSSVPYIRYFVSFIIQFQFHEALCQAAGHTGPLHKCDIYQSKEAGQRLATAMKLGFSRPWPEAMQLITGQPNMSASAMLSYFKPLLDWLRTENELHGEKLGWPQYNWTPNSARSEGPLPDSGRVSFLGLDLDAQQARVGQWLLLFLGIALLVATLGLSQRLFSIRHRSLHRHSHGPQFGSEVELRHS

Oc1cc(O)c2c(c1)O[C@H](c1ccc(O)c(O)c1)[C@H](O)C2 [(-)-epicatechin]
GTase-inhibiting activity (in words) [1]: very low GTase-inhibiting activity | antioxidative activity (amount of peroxylipid formed, absorbance at 500 nm) [2]: antioxidative activities equivalent to those of BHA and BHT

O=C(O)/C=C/c1ccc(O)cc1 [p-coumaric acid]
antioxidative activity (amount of peroxylipid formed, absorbance at 500 nm) [2]: no antioxidative activity

O=C(O[C@@H]1Cc2c(O)cc(O)cc2O[C@@H]1c1cc(O)c(O)c(O)c1)c1cc(O)c(O)c(O)c1 [EGCg, (-)-epigallocatechin gallate]
IC50 [3]: 300 µM | amount showing 50% antimutagenic activity to Trp-P-2 ([4]; 1 μg of Trp-P-2, FIG. 13): about 51 μg | amount showing 50% antimutagenic activity to benzo[a]pyrene ([4]; 5 μg of benzo[a]pyrene, FIG. 14): about 56 μg

O=C(O[C@@H]1Cc2c(O)cc(O)cc2O[C@@H]1c1ccc(O)c(O)c1)c1cc(O)c(O)c(O)c1 [ECg, (-)-epicatechin gallate]
IC50 ([3]; pure polyphenol compounds, FIG. 9, read-out: IC50 to ACE): 2000 µM | IC50 [1]: ~452 µM

O=c1c(O)c(-c2ccc(O)c(O)c2)oc2cc(O)cc(O)c12 [quercetin]
antioxidative activity (amount of peroxylipid formed, absorbance at 500 nm) [2]: antioxidative activities equivalent to those of BHA and BHT

O=C(CCc1ccc(O)cc1)c1c(O)cc(O)cc1O [phloretin]
antioxidative activity (amount of peroxylipid formed, absorbance at 500 nm) [2]: no antioxidative activity

Oc1cc(O)c2c(c1)O[C@H](c1ccc(O)c(O)c1)[C@@H](O)C2 [(+)-catechin]
antioxidative activity (amount of peroxylipid formed, absorbance at 500 nm) [2]: antioxidative activities equivalent to those of BHA and BHT

O=C(O)/C=C/c1ccc(O)c(O)c1 [caffeic acid]
antioxidative activity (amount of peroxylipid formed, absorbance at 500 nm) [2]: antioxidative activities equivalent to those of BHA and BHT

O=C(/C=C/c1ccc(O)c(O)c1)O[C@@H]1C[C@](O)(C(=O)O)C[C@@H](O)[C@H]1O [chlorogenic acid]
GTase-inhibiting activity (in words) [1]: very low GTase-inhibiting activity

C[C@@H]1O[C@@H](OC[C@H]2O[C@@H](Oc3c(-c4ccc(O)c(O)c4)oc4cc(O)cc(O)c4c3=O)[C@H](O)[C@@H](O)[C@@H]2O)[C@H](O)[C@H](O)[C@H]1O [rutin]
antioxidative activity (amount of peroxylipid formed, absorbance at 500 nm) [2]: antioxidative activities equivalent to those of BHA and BHT

O=C(CCc1ccc(O)cc1)c1c(O)cc(O)cc1O[C@@H]1O[C@H](CO)[C@@H](O)[C@H](O)[C@H]1O [phloridzin]
GTase-inhibiting activity (in words) [1]: very low GTase-inhibiting activity | antioxidative activity (amount of peroxylipid formed, absorbance at 500 nm) [2]: no antioxidative activity

NCCCC(=O)O [GABA, γ-aminobutyric acid]
ACE-inhibiting activity (in words) [3]: no ACE-inhibiting activity

O=C(O)c1cc(=O)c2c(OCC(O)COc3cccc4oc(C(=O)O)cc(=O)c34)cccc2o1 [sodium cromoglicate]
IC50 (hyaluronidase): ~109 µM
